This note sets out measurements from patent US12103952B2, “Methods for expressing proteins in axons” (Cornell University, priority 2010, dated 2024).

For experiment [1], the system named is CREB reporter mRNA translation in DRG axons. Put plainly: myr-dEGFP3′CREB Sindbis translation reporter in axons. The settings on record: factor restored after NGF-free media. The experiment is classed as cell-based, rat. The text has this: FIGS. 5A-C are results showing NGF-dependent translation of a CREB reporter mRNA in axons. (A) Schematic diagram of the Sindbis viral reporter construct used to monitor CREB translation. The reporter contains a myristoylated, destabilized EGFP (myr-dEGFP) with the 3′UTR of CREB, expressed under control of the Sindbis subgenomic promoter (PSG). (B) E15 DRG explant cultures were infected with Sindbis constructs expressing myr-dEGFP3′CREB on DIV3 and fluorescence (bottom panel) and phase (top panel) images, approximately 1000 μm from the cell body were collected after 24 hours. Fluorescence images are shown in inverted contrast in order to more readily visualize puncta. Scale bar, 25 μm. […] EGFP fluorescence co-localizes with a population of S6-labeled ribosomal clusters. […]
FIGS. 6A-H are data showing that axonal CREB is specifically translated in response to NGF. […] (B) E15 DRG explant cultures were infected with Sindbis constructs expressing myr-dEGFP3′RhoA or myr-dEGFP3′H1f0 on DIV3 and fluorescence images were collected after 24 h. […] (D) Axons from DIV3 DRGs were analyzed for CREB and mitochondrial localizations by immunofluorescence using CREB-specific and VDAC/porin1-specific antibodies. […] CREB mRNA was detected by FISH using a CREB specific riboprobe. […] (H) Axons of DIV3 DRG explant cultures were analyzed by immunofluorescence for NGF effectors CREB, pTrkA and pErk5 at 3 DIV. […]

In experiment [2] the test system is CRE-dependent transcription. The experiment in a line: CRE-luciferase adenovirus reporter in DRG neurons. It counts as cell-based, rat.

Take NGF: nerve growth factor: the “fluorescent myr-dEGFP3′CREB puncta” value in experiment [1] is “reappeared following restoration of NGF”. Moreover, the luciferase levels entry in experiment [2] (axonal application of NGF) was “increased luciferase levels”. The luciferase immunofluorescence result in experiment [2] (bath application of NGF, 0-100 ng/ml, 24 hours) is given as “dose-dependent increase in luciferase immunofluorescence”.
